Measured values as given in a melting point compilation (Tetko et al.; mined from patent text by program, amines drawn as free bases though some values may be those of a salt).

Row | SMILES | melting point [°C]
1 | COC(=O)CC=CCC(=O)NCCc1ccccc1 | 69 to 70
2 | CC1=C(c2ccccc2)CCC(=O)N1 | 310 to 330
3 | COc1cn(C(C)C)c(=O)o1 | 108 to 110
4 | NS(=O)(=O)c1cc(C(=O)O)cc(NCc2ccccc2)c1Oc1ccccc1 | 264 to 265
5 | CC(C)(C)C(O)C(=CC1CCCCC1)n1cncn1 (stereo not given) | 145 to 148
6 | CN1CC(CNC(=N)NC(=O)c2cncc(Br)c2)CC2c3cccc4c3c(cn4C)CC21 (stereo not given) | 140 to 142
7 | O=c1c(Oc2ccccc2)nc2ccccc2n1-c1ccc(Cl)cc1 | 239 to 241
8 | CC(=O)Nc1cc(C(F)(F)F)no1 | 108 to 110
9 | COc1ccc(-c2nc(S(=O)c3ccc(C)cc3)n(C3CCCCO3)c2-c2ccc(OC)cc2)cc1 (stereo not given) | 162 to 164
10 | CCOC(=Cc1ccc(-c2cccc(N(C)C(=O)NCCc3ccccc3)c2)cc1)C(=O)O | 70
11 | O=C(O)COc1cc(F)ccc1C(=S)NCc1cccc([N+](=O)[O-])c1 | 147 to 150
12 | COc1ccc(Cc2cc(SC#N)ccc2OC)cn1 | 56 to 58
13 | CCCCCC(CC(=O)Nc1cc(C(N)=O)ccc1C(C)(C)C)c1cc(Br)c(OC)cc1OC (stereo not given) | 102 to 104
14 | COc1ccccc1NC(=O)Nc1nc(Nc2ccccc2-c2ccccc2)nc(N(CC(=O)O)Cc2ccc(C)cc2)n1 | 132 to 145
15 | CCCn1c(SC)nc2sccc2c1=O | 94 to 96
16 | N#CN=C(NCc1ccccn1)Nc1cccc(-c2cccc(S(=O)(=O)NC(CC(=O)O)c3ccccc3)c2)c1 (stereo not given) | 90
17 | OC1(c2ccc3c(c2)OCO3)CCN(Cc2ccccc2)CC1 | 144
18 | COc1cc(COc2nn(-c3ccccc3)cc2-c2cnco2)ccc1OCc1nc(-c2ccco2)oc1C | 153 to 154
19 | CC(C)n1nc(-c2sc(NC(=O)c3ccc(CN(C)C)cc3)nc2-c2ccccc2)ccc1=O | 246 to 248
20 | COc1cc(COc2nn(-c3ccccc3)cc2/C=C/c2nnc(C)[nH]2)ccc1OCc1nc(-c2ccco2)oc1C | 165 to 166
21 | CCOC(=O)c1cc(CC)sc1Nc1cc(F)c(F)cc1[N+](=O)[O-] | 105
22 | CC(C)N(CCN1C(=O)C(=O)c2ccccc21)C(C)C | 60 to 61
23 | S=C(Nc1ccccc1)Nc1ncccc1OCc1ccc(Cl)cc1 | 162 to 164
24 | COC(C)(C)C(=NO)n1ccnc1 | 155 to 160

Row | SMILES | melting point [°C]
25 | COc1ccccc1-c1coc2cc(O)ccc2c1=O | 222 to 224
26 | CCCc1ccnc2c(=O)[nH]c(-c3cc(S(=O)(=O)N4CCN(C)CC4)ccc3OCC)nc12 | 211 to 212
27 | CCOC(O)(OCC)C(Cc1ccc2ccccc2c1)NC(=O)OC(C)(C)C (stereo not given) | 87
28 | CC(C)NCC1COC(=O)C1(c1ccccc1)c1ccccc1 (stereo not given) | 78 to 80
29 | O=C1Nc2ccccc2N(C(=O)N2CCCC(CCNCC3CCCC3)C2)c2ncccc21 (stereo not given) | 148 to 150
30 | Cc1cccc(-c2ccc(S(=O)(=O)N3c4ccccc4CC3C(=O)O)cc2)c1 (stereo not given) | 123 to 128
31 | CCN(CC)CCCN1C(=S)c2cccc3cccc1c23 | 128
32 | COc1ccc(S(=O)(=O)N(COCC[Si](C)(C)C)c2ccccc2I)cc1 | 69 to 70
33 | C=CCc1cc(-c2ccc(F)cc2)cc(C(=O)OC)c1O | 76 to 77
34 | Cn1cc2c(C3CC3C#N)c(Br)ccc2n1 (stereo not given) | 154 to 156
35 | CSc1ccc(CNC(=O)c2sc(NC(C)=O)nc2CCc2ccc(NC(=O)OC(C)(C)C)cc2)cc1 | 182 to 183
36 | O=C1C=CC(O)(c2cnc3ccccc3c2)C=C1 | 183 to 184
37 | [N-]=[N+]=NCC1=NN=C(c2ccc([N+](=O)[O-])cc2)c2cc3c(cc2C1)OCO3 | 198 to 200
38 | O=C(O)CN(CCN(CC(=O)O)CC(=O)O)CCN(CC(=O)O)CC(=O)NCCC(O)(P(=O)(O)O)P(=O)(O)O | 145
39 | COc1cc(C(=O)NS(=O)(=O)c2ccccc2C)ccc1Cc1cn(C)c2ccc(CCNC(=O)N3CCOCC3)cc12 | 125 to 133
40 | N#CNC(=N)CCN1CCOC1=O | 137 to 139
41 | CC(C)(C)OC(=O)NC(C)(COCc1ccccc1)C(=O)O (stereo not given) | 112 to 114
42 | Nc1cccc2c1C(Cc1ccnc(F)c1)(Cc1ccnc(F)c1)c1ccccc1-2 | 182 to 184
43 | O=C1C(=O)c2ccccc2C2=C1SCC1(CCN(CCCOc3ccc(Cl)cc3)CC1)O2 | 130 to 132
44 | Nc1nnc2ccc(N3CCCCC3)nn12 | 245 to 246
45 | O=C(c1ccccc1)c1ccc(SC(Cl)(Cl)Cl)cc1 | 62 to 63
46 | Oc1nc2cc(Br)c3ccccc3c2nc1O | > 300
47 | CC(C)(C)OC(=O)CCNC1(c2ccccc2Cl)C(=O)Nc2ccc(Cl)cc21 (stereo not given) | 188
48 | COc1ccccc1S(=O)(=O)c1ccc2c(c1)[C@@H](N1CCCC1=O)[C@H](O)C(C)(C)O2 (relative stereo) | 196 to 198

Row | SMILES | melting point [°C]
49 | CN(C)S(=O)(=O)n1c(C(F)(F)F)nc2c(Br)cc(C(F)(F)F)cc21 | 147
50 | COC(=O)CCC/C=C(\c1cc(C)c(OC)c(C(=O)OC)c1)c1cc(C)c2oc(=O)n(C)c2c1 | 120
51 | COc1ccc(/C=C/c2c(Cl)cncc2Cl)c2cc(-c3ccccn3)oc12 | 157 to 158
52 | COc1ccc2c(c1)C=C(/C=C/C=C/C=C/C(=O)O)CO2 | 250 to 252
53 | CC(C)c1cc(NS(=O)(=O)c2cc(C3(O)CCC(=O)N3C)ccc2Cl)cc(C(C)C)c1O (stereo not given) | 198 to 200
54 | CCCc1c(OCCCOc2ccc(Cl)c3ccccc23)ccc2c1OC(CCC(=O)O)(CCC(=O)O)CC2=O | 170 to 171
55 | COC(=O)C1=C(C)NC(C=O)=C(C(=O)OC)C1c1cccc2c(=O)c(C)c(-c3ccccc3)oc12 (stereo not given) | 216
56 | CCOC(=O)Cn1cc(C(=O)OCC)c(=O)c2ccccc(=O)c21 | 152 to 154
57 | Fc1ccc(N2CCN(Cc3cn4cc(Br)ccc4n3)CC2)cc1 | 110 to 112
58 | CN1CCCC(c2nc3cccnc3[nH]2)C1 (stereo not given) | 141 to 144
59 | CCN1NN(N)N=C1C | 45 to 50
60 | N#Cc1c(F)c(F)cc(C(=O)O)c1F | 187 to 190
61 | Cc1cc(Br)cc(C=NO)c1 | 128 to 129
62 | COc1cc(C2CCN(CCO)CC2)ccc1Nc1ncc2ccc(-c3cccc(S(=O)(=O)NC(C)(C)C)c3)n2n1 | 220 to 224
63 | O=C1CCc2cc(-n3ccnc3)ccc21 | 148 to 150
64 | CC(CCN(C)c1ccccc1)=NO | 46 to 49
65 | C=CC(=O)N(C1CC(C)(C)NC(C)(C)C1)C1CC(C)(C)NC(C)(C)C1 | 115 to 118
66 | Nc1sc2c(c1C(=O)c1ccc(Br)c3ccccc13)CCC2 | 210 to 212
67 | O=C1OC(=O)c2cc3cccc([N+](=O)[O-])c3c3cccc1c23 | 246
68 | CCC(C)CNNC(=O)c1cc(N)cc(C(=O)NNCC(C)CC)c1 (stereo not given) | 162 to 163
69 | COc1cc(C)c(C(=O)c2c(O)ccc(Br)c2C)c(OC)c1OC | 119 to 120
70 | CCOC(=O)c1cn(-c2nc(N)c(F)cc2F)c2c(F)c(F)c(F)c(NCc3ccccc3)c2c1=O | 176 to 180
